Test results taken from paper PMC10301570 (Molecules, 2023).
Like-named read-outs stand apart in the source and are kept apart here.

Key:
[1] = In-vivo pharmacokinetic study in rats after oral administration of EECQ extract; conditions: serum, oral 400 mg/Kg EECQ, mean ± SD, n = 6; for AUC(0-inf): male, SD, po; for AUC(0-inf) / AUC(0-t) / Cmax / Tmax / half-life: rat
Procedure: Liquid-liquid extraction was employed for processing samples of quercetin and t-res in rat serum. CS/QC samples were prepared using 10 μL of sample and 90 μL of control serum or 100 μL serum (in vivo) samples were treated with 100 μL of 1 mg/mL β-glucuronidase enzyme in 100 mM ammonium acetate buffer (pH 5) and incubated for 2 h at 37 °C. The reaction mixtures were precipitated with 200 μL of 0.1% FA in methanol-containing IS (FFA). Samples were vortexed for 5 min at 2000 rpm, and then ethyl acetate was added, the sample was vortexed and centrifuged at 10,000 rpm for 10 min. The organic layer was then collected and dried at 37 °C using a TurboVap and nitrogen stream. The dried residues were reconstituted with mobile phase and injected into LC-MS/MS for analysis.
The pharmacokinetic study of quercetin and t-res was performed by an oral administration of EECQ extract (400 mg/kg) in male SD rats (n = 6). The EECQ oral dose was selected based on our previous publication. […] Blood samples were collected from the retro-orbital plexus of rats at predetermined time points 0.25, 0.5, 1, 2, 4, 8, 12, 24, and 48 h after oral administration. Serum was obtained by centrifuging the blood and samples were stored at −80 °C until analysis. Serum samples were processed using the LLE extraction mentioned in Section 4.6 and analyzed using the validated LC-MS/MS method. The non-compartment model was used to calculate the pharmacokinetic (PK) parameters for quercetin and t-res using WinNonlin 6.3 software (Pharsight Corporation, Saint Louis, MO, USA). The PK parameters were estimated, including Cmax, maximum plasma concentration; t1/2, half-life; Tmax, time to reach Cmax; CL/F, clearance and Vd/F, apparent volume of distribution. AUC0–t (area under the concentration curve from zero time point to the last time point) was determined with the trapezoidal rule up to the last measured plasma concentration, Clast. AUC0–∞ (AUC curve from zero time point to infinity) was determined by adding AUC0–t and Clast/Ke.

[2] = Stability in simulated gastric fluid (SGF, pH 1.2); assay type: in vitro ADME; conditions: 100 μg/mL, SGF pH 1.2, 37 °C, 0–60 min
Procedure: (§1) The stability of quercetin and t-res was tested at 100 μg/mL in simulated gastric (SGF, pH 1.2) and intestinal (SIF, pH 6.8) fluids (n = 3). The manufacturer’s protocol was followed to prepare biorelevant media with enzymes. Quercetin and t-res were exposed to SGF and SIF buffers with and without enzymes and incubated in a shaking water bath at 37 °C. 100 μL samples were collected at specific intervals (0–60 min for SGF and 0–180 min for SIF). At a concentration of 100 µg/mL samples were extracted using ACN containing I.S (1:2, v/v), vortexed for 5 min, and then centrifuged at 10,000 rpm for 5 min [52]. The supernatant of the samples was utilized for LC-MS/MS analysis. The % remaining of quercetin and t-res was calculated to determine the stability using Equation (1). (1) % Drug remaining=Concentration of drug at time t/Concentration of drug at time 0×100

[3] = Stability in simulated intestinal fluid (SIF, pH 6.8); assay type: in vitro ADME; conditions: 100 μg/mL, SIF pH 6.8, 37 °C, 0–180 min
Procedure: as §1

Plasma stability = assay type: in vitro ADME; conditions: rat, 37 °C
Procedure: The preincubation of rat plasma was done for 5 min at 37 °C. After pre-incubation, quercetin and t-res were added to plasma at a concentration of 100 µg/mL, and reaction tubes were incubated for 3 h in a shaking water bath at 37 °C. Aliquots were collected at predetermined timepoints of 0, 5, 15, 30, 45, 60, 90, 120, and 180 min. Plasma samples were processed immediately using the extraction method mentioned in Section 4.6. The % remaining of the drug at various time intervals relative to the initial time point (time 0) was used to calculate the plasma stability.

[4] = Stability in rat serum under storage conditions (autosampler, benchtop, long-term, freeze-thaw); assay type: in vitro ADME; conditions: for Autosampler stability, accuracy / Autosampler stability, measured conc. / Benchtop stability, accuracy / Benchtop stability, measured conc. / Freeze-thaw stability, accuracy / Freeze-thaw stability, measured conc. / Long-term stability, accuracy / Long-term stability, measured conc.: rat serum, n = 6; for Autosampler stability, accuracy / Autosampler stability, measured conc.: 4 ± 2 °C, 24 h; for Benchtop stability, accuracy / Benchtop stability, measured conc.: 24 ± 4 °C, 8 h; for Freeze-thaw stability, accuracy / Freeze-thaw stability, measured conc. / Long-term stability, accuracy / Long-term stability, measured conc.: −70 ± 10 °C; for Freeze-thaw stability, accuracy / Freeze-thaw stability, measured conc.: 3 cycles; for Long-term stability, accuracy / Long-term stability, measured conc.: 30 days
Procedure: Stability studies were performed using three different QC levels including LQC, MQC, and HQC with six replicates. The extracted serum samples were analyzed using different storage conditions including autosampler (4 ± 2 °C for 24 h), bench top stability (24 ± 4 °C for 8 h), and long-term stability (−70 ± 10 °C for 30 days). Freeze-thaw stability was evaluated after subjecting the samples to three cycles of freezing (−70 ± 10 °C for 12 h) and thawing. Stability samples were quantified against fresh calibration and QC samples. The accuracy and precision of stability samples should meet the acceptance criterion of ±15%.

[5] = design: method as in Dinesh Kumar V et al. (2014) [48]; conditions: rat plasma, oral, 25 mg/kg, ref Dinesh Kumar V et al. (2014) [48], cited from earlier work
[6] = Metabolic stability in rat liver microsomes (RLM); conditions: RLM 0.5 mg/mL, 100 µg/mL, 1 mM NADPH, up to 60 min
Procedure: (§2) The 0.8 mL reaction mixture was prepared using RLM at 0.5 mg/mL, 40 mM MgCl2, in 50 mM Tris-HCl buffer (pH 7.4). 100 µg/mL of quercetin and t-res was added to the reaction mixture and preincubated in a shaking water bath at 37 °C and 1 mM NADPH was added to the reaction milieu to initiate the reactions. Samples were collected at predetermined time points up to 60 min and processed for LC-MS/MS analysis [54].

[7] = rat, microsomes, 1 h
Procedure: as §2

[8] = design: method as in Meng-xiang Su et al. (2011) [47]; conditions: rat plasma, oral, 0.6 mg/kg; ref Meng-xiang Su et al. (2011) [47]; cited from earlier work
[9] = nominal conc. 203 ng/mL (204 for trans-resveratrol)

| SMILES | AUC(0-inf) ([1]; 400 mg/kg) [ng·h/mL] | AUC(0-t) ([1]; male SD rats) [ng·h/mL] | Cmax ([1]; male SD rats) [ng/mL] | Tmax ([1]; male SD rats) [h] | half-life ([1]; male SD rats) [h] | remaining at 3 h, 100 µg/mL (Plasma stability) [%] | Autosampler stability, accuracy ([4]; nominal conc. 30 ng/mL) [%] | Autosampler stability, measured conc. ([4]; nominal conc. 30 ng/mL) [ng/mL] | Autosampler stability, accuracy [4, 9] [%] | Autosampler stability, measured conc. [4, 9] [ng/mL] | Autosampler stability, accuracy ([4]; nominal conc. 375 ng/mL) [%] | Autosampler stability, measured conc. ([4]; nominal conc. 375 ng/mL) [ng/mL] | Benchtop stability, accuracy ([4]; nominal conc. 30 ng/mL) [%] | Benchtop stability, measured conc. ([4]; nominal conc. 30 ng/mL) [ng/mL] | Benchtop stability, accuracy [4, 9] [%] | Benchtop stability, measured conc. [4, 9] [ng/mL] | Benchtop stability, accuracy ([4]; nominal conc. 375 ng/mL) [%] | Benchtop stability, measured conc. ([4]; nominal conc. 375 ng/mL) [ng/mL] | Freeze-thaw stability, accuracy ([4]; nominal conc. 30 ng/mL) [%] | Freeze-thaw stability, accuracy [4, 9] [%] | other results |
| --- | --- | --- | --- | --- | --- | --- | --- | --- | --- | --- | --- | --- | --- | --- | --- | --- | --- | --- | --- | --- | --- |
| O=c1c(O)c(-c2ccc(O)c(O)c2)oc2cc(O)cc(O)c12 [Quercetin] | 471 ± 51.5 | 447 ± 47 | 57.6 ± 14.3 | 1.17 ± 0.41 | 4.91 ± 0.69 | 83.4 | 92.56 | 27.77 ± 1.50 | 89.32 | 181.31 ± 8.65 | 99.44 | 372.92 ± 2.21 | 90.29 | 27.09 ± 1.67 | 90.96 | 184.64 ± 7.16 | 98.96 | 371.12 ± 2.43 | 98.12 | 93.68 | AUC0–∞ ([1]; male SD rats, 400 mg/kg): 474.23 ± 51.49 ng·h/mL; Stability in SGF [2]: Moderate instability; Stability in SIF [3]: stable; Stability in rat serum at variable storage conditions ([4]; autosampler, benchtop, freeze-thaw, long-term): stable; Freeze-thaw stability, measured conc. ([4]; nominal conc. 30 ng/mL): 29.44 ± 2.73 ng/mL; Freeze-thaw stability, measured conc. [4, 9]: 190.17 ± 8.97 ng/mL; Freeze-thaw stability, accuracy ([4]; nominal conc. 375 ng/mL): 98.63%; Freeze-thaw stability, measured conc. ([4]; nominal conc. 375 ng/mL): 369.86 ± 4.43 ng/mL; Long-term stability, accuracy ([4]; nominal conc. 30 ng/mL): 100.22%; Long-term stability, measured conc. ([4]; nominal conc. 30 ng/mL): 30.07 ± 2.06 ng/mL; Long-term stability, accuracy [4, 9]: 98.38%; Long-term stability, measured conc. [4, 9]: 199.71 ± 8.70 ng/mL; Long-term stability, accuracy ([4]; nominal conc. 375 ng/mL): 99.48%; Long-term stability, measured conc. ([4]; nominal conc. 375 ng/mL): 373.05 ± 10.65 ng/mL; AUC(0–t) [5]: 3283.75 ng·h/mL; Tmax [5]: 4.00; plasma half-life [5]: 4.96 h; Cmax ([5]; in ng/mL): 369.20; % remaining in RLM [6]: 53.78 |
| Oc1ccc(/C=C/c2cc(O)cc(O)c2)cc1 [trans-Resveratrol, trans-resveratrol] | 157 ± 21.1 | 145 ± 20.8 | 56.4 ± 13.1 | 0.58 ± 0.2 | 1.51 ± 0.4 | 84.4 | 94.53 | 28.36 ± 2.19 | 93.73 | 190.28 ± 13.20 | 99.51 | 373.15 ± 5.84 | 95.08 | 28.52 ± 3.05 | 93.36 | 189.53 ± 8.81 | 98.17 | 368.13 ± 12.29 | 91.32 | 93.32 | Freeze-thaw stability, measured conc. [4, 9]: 189.43 ± 17.82 ng/mL; Freeze-thaw stability, accuracy ([4]; nominal conc. 375 ng/mL): 98.11%; Freeze-thaw stability, measured conc. ([4]; nominal conc. 375 ng/mL): 367.92 ± 11.94 ng/mL; Long-term stability, accuracy ([4]; nominal conc. 30 ng/mL): 101.68%; Long-term stability, measured conc. ([4]; nominal conc. 30 ng/mL): 30.50 ± 2.53 ng/mL; Long-term stability, accuracy [4, 9]: 93.14%; Long-term stability, measured conc. [4, 9]: 189.08 ± 14.18 ng/mL; Long-term stability, accuracy ([4]; nominal conc. 375 ng/mL): 97.67%; Long-term stability, measured conc. ([4]; nominal conc. 375 ng/mL): 366.25 ± 11.38 ng/mL; Phase I metabolism in RLM [7]: no phase I metabolism was observed; Phase I metabolism in RLM ([7]; 100 µg/mL, pH 7.4): no phase-1 metabolism observed; AUC(0–t) [8]: 2835 ± 1655 ng·min/mL; Cmax [8]: 23 ± 8 ng/mL; half-life [8]: 0.6 ± 0.1 h |
